pIC50: −log10 of the molar value. Where “and” joins values, the source holds several entries; their conditions need not be identical. Equal values may be shown once.
Experiments:
[1] = molecular target: Glycogen synthase kinase-3 beta (Homo sapiens, UniProt P49841); assay: TR-FRET Assay
How it was run: (§1)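 Signal is measured as TR-FRET between a terbium anti-phospho-Ser641 antibody and streptavidin-d2, added after an EDTA quench. Compounds are preincubated 30 min in assay buffer.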

[2] = molecular target: Glycogen synthase kinase-3 alpha (Homo sapiens, UniProt P49840); assay: TR-FRET Assay
How it was run: as §1

Chain of Glycogen synthase kinase-3 beta (P49841 whole entry): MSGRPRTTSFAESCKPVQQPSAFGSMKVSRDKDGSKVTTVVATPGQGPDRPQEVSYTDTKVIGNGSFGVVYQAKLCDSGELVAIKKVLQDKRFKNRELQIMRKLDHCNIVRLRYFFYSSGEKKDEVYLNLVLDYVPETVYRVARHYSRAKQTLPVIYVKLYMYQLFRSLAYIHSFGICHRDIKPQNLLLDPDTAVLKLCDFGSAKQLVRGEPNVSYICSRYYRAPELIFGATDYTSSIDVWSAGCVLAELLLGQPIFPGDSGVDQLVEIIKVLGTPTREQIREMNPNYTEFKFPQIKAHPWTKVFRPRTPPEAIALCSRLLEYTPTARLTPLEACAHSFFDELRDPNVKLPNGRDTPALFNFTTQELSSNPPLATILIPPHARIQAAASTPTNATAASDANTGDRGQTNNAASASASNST
Chain of Glycogen synthase kinase-3 alpha (P49840 whole entry): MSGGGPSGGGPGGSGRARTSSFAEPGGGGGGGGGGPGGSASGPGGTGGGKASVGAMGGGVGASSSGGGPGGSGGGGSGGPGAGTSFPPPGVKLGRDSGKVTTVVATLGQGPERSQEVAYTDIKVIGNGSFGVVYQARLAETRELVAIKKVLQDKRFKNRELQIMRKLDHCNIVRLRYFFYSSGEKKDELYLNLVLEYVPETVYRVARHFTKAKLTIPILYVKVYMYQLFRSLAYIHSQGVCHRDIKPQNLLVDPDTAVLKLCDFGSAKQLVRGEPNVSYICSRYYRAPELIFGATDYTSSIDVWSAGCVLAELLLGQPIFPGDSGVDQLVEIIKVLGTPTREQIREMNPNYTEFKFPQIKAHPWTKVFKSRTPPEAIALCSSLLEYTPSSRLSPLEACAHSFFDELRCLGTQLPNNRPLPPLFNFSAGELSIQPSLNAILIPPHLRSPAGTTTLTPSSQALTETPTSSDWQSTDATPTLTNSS

SMILES | pIC50 [1] | pIC50 [2]
CC[C@]1(c2cccc(-c3ccnc(C)c3C)c2)C2=C(CC(C)(C)NC2=O)NC2N=NC(C(F)(F)F)=C21 (some centres not stated) [US20250313563, Compound 948181] | 6.00 to 7.00 | 6.00 to 7.00
CC[C@]1(c2cccc(-c3ccnc(C)c3C)c2)C2=C(CC(C)(C)NC2=O)NC2N=NC(C)=C21 (some centres not stated) [US20250313563, Compound 948183] | < 5.30 | 5.30 to 6.00
CC[C@@]1(c2cccc(-c3ccnc(C)c3C)c2)C2=CN=NC2NC2=C1C(=O)NC(C)(C)C2 (some centres not stated) [US20250313563, Compound 948184] | 6.00 to 7.00 and 5.30 to 6.00 | > 7.00 and 6.00 to 7.00
CC[C@]1(c2cccc(-c3ccnc(C)c3C)c2)C2=CN=NC2NC2=C1C(=O)NC(C)(C)C2 (some centres not stated) [US20250313563, Compound 948188] | < 5.30 | 5.30 to 6.00
CCC1(c2cccc(C(F)(F)F)c2)C2=C(NC3=NN=CC31)c1ccccc1C2=O (configuration not stated) [US20250313563, Compound 948205] | > 7.00 and 6.00 to 7.00 | > 7.00 and 6.00 to 7.00
CC1(C)CC(=O)C2=C(C1)NC1=C(CN=N1)[C@]21COC2(CN(C(=O)[C@H]3CC3(F)F)C2)C1 [US20250313563, Compound 948215] | > 7.00 and 6.00 to 7.00 | > 7.00 and 6.00 to 7.00
CC1(C)CC(=O)C2=C(C1)NC1=C(CN=N1)[C@@]21COC2(CN(C(=O)[C@H]3CC3(F)F)C2)C1 [US20250313563, Compound 948217] | 5.30 to 6.00 | 6.00 to 7.00
CC1(C)CC(=O)C2=C(C1)NC1=C(CN=N1)[C@]21COC2(CN(C(=O)[C@@H]3CC3(F)F)C2)C1 [US20250313563, Compound 948219] | > 7.00 and 5.30 to 6.00 | > 7.00 and 6.00 to 7.00
CC1(C)CC(=O)C2=C(C1)NC1=C(CN=N1)[C@@]21COC2(CN(C(=O)[C@@H]3CC3(F)F)C2)C1 [US20250313563, Compound 948221] | 6.00 to 7.00 | 6.00 to 7.00
Cc1cc(C)cc(C(=O)N2CC3(C2)C[C@]2(CO3)C3=C(N=NC3)NC3=C2C(=O)CC(C)(C)C3)c1 [US20250313563, Compound 948222] | 5.30 to 6.00 | 6.00 to 7.00
Cc1cc(C)cc(C(=O)N2CC3(C2)C[C@@]2(CO3)C3=C(N=NC3)NC3=C2C(=O)CC(C)(C)C3)c1 [US20250313563, Compound 948223] | > 7.00 and 6.00 to 7.00 | > 7.00 and 6.00 to 7.00
CC[C@]1(c2cccc(C(F)(F)F)c2)C2=CN=NC2NC2=C1C(=O)N(c1ccc(F)cc1)CC2 (some centres not stated) [US20250313563, Compound 948224] | 6.00 to 7.00 | > 7.00
CC[C@@]1(c2cccc(C(F)(F)F)c2)C2=CN=NC2NC2=C1C(=O)N(c1ccc(F)cc1)CC2 (some centres not stated) [US20250313563, Compound 948225] | < 5.30 | 5.30 to 6.00
CC[C@@]1(c2cccc(C(F)(F)F)c2)C2=C(CCN(c3ccc(OC)cc3)C2=O)NC2N=NC(C)=C21 (some centres not stated) [US20250313563, Compound 948226] | 6.00 to 7.00 | > 7.00
CC[C@@]1(c2cccc(C(F)(F)F)c2)C2=CN=NC2NC2=C1C(=O)N(c1ccc(OC)cc1)CC2 (some centres not stated) [US20250313563, Compound 948227] | < 5.30 | 5.30 to 6.00
CCC1(c2cccc(C(F)(F)F)c2)C2=CN=NC2NC2=C1C(=O)N(c1cncnc1)CC2 (configuration not stated) [US20250313563, Compound 948238] | 6.00 to 7.00 | > 7.00
CCC1(c2cccc(C(F)(F)F)c2)C2=CN=NC2NC2=C1C(=O)N(c1ccc(C)cc1)CC2 (configuration not stated) [US20250313563, Compound 948241] | 6.00 to 7.00 | > 7.00
CCC1(c2cccc(OC)c2)C2=C(N=NC2)NC2=C1C(=O)NC(C)(C)C2 (configuration not stated) [US20250313563, Compound 948296] | 5.30 to 6.00 | 6.00 to 7.00
CCC1(c2cccc(-c3ccnc(C)c3F)c2)C2=C(CC(C)(C)NC2=O)NC2N=NC(C(F)(F)F)=C21 (configuration not stated) [US20250313563, Compound 948297] | > 7.00 | > 7.00
CC1(C)CC(=O)C2=C(C1)NC1=C(CN=N1)C21CN(c2ccccc2)C1 [US20250313563, Compound 948298] | > 7.00 | > 7.00
CCC1(c2cccc(-c3ccnc(C)c3)c2)C2=C(CC(C)(C)NC2=O)NC2N=NC(F)=C21 (configuration not stated) [US20250313563, Compound 948299] | 5.30 to 6.00 | > 7.00
CCC1(c2cccc(-c3cnn(C)c3)c2)C2=C(CC(C)(C)NC2=O)NC2N=NC(F)=C21 (configuration not stated) [US20250313563, Compound 948300] | 6.00 to 7.00 | > 7.00
CCC1(c2cccc(-c3cn(C)nc3C)c2)C2=C(CC(C)(C)NC2=O)NC2N=NC(F)=C21 (configuration not stated) [US20250313563, Compound 948301] | > 7.00 | > 7.00
CCC1(c2cccc(-c3ccnc(C)c3)c2)C2=CN=NC2NC2=C1C(=O)N(C)C(C)(C)C2 (configuration not stated) [US20250313563, Compound 948302] | 6.00 to 7.00 | > 7.00
CCC1(c2cccc(S(=O)(=O)C3CC3)c2)C2=CN=NC2NC2=C1C(=O)N(C)C(C)(C)C2 (configuration not stated) [US20250313563, Compound 948303] | > 7.00 | > 7.00
CCC1(c2cccc(-c3cn(C)nc3C)c2)C2=CN=NC2NC2=C1C(=O)N(C)C(C)(C)C2 (configuration not stated) [US20250313563, Compound 948304] | > 7.00 | > 7.00

SMILES | pIC50 [1] | pIC50 [2]
CCC1(c2cccc(C(F)F)c2)C2=C(CC(C)(C)NC2=O)NC2N=NC(C(F)(F)F)=C21 (configuration not stated) [US20250313563, Compound 948305] | > 7.00 | > 7.00
CC[C@@]1(c2cccc(-c3ccnc(C)c3F)c2)C2=CN=NC2NC2=C1C(=O)NC(C)(C)C2 (some centres not stated) [US20250313563, Compound 948306] | 6.00 to 7.00 | > 7.00
CC[C@]1(c2cccc(C3=CN=NC3)c2)C2=C(CC(C)(C)NC2=O)NC2N=NC(C(F)(F)F)=C21 (some centres not stated) [US20250313563, Compound 948307] | > 7.00 | > 7.00
CC[C@]1(c2cccc(-c3cn(C)nc3C)c2)C2=C(CC(C)(C)NC2=O)NC2N=NC(C(F)(F)F)=C21 (some centres not stated) [US20250313563, Compound 948309] | < 5.30 | 5.30 to 6.00
CC[C@]1(c2cccc(-c3ccnc(C)c3F)c2)C2=CN=NC2NC2=C1C(=O)NC(C)(C)C2 (some centres not stated) [US20250313563, Compound 948311] | 5.30 to 6.00 | 6.00 to 7.00
CC[C@@]1(c2cccc(C3=CN=NC3)c2)C2=C(CC(C)(C)NC2=O)NC2N=NC(C(F)(F)F)=C21 (some centres not stated) [US20250313563, Compound 948312] | 6.00 to 7.00 | > 7.00
CC[C@]1(c2cccc(-c3ccnc4c3CCC4)c2)C2=CN=NC2NC2=C1C(=O)NC(C)(C)C2 (some centres not stated) [US20250313563, Compound 948313] | > 7.00 and 5.30 to 6.00 | > 7.00 and 6.00 to 7.00
CC(=O)N1CC[C@]2(C1)C[C@@]1(CO2)C2=C(N=NC2)NC2=C1C(=O)CC(C)(C)C2 [US20250313563, Compound 948319] | 6.00 to 7.00 | > 7.00
CC(=O)N1CC[C@@]2(C1)C[C@@]1(CO2)C2=C(N=NC2)NC2=C1C(=O)CC(C)(C)C2 [US20250313563, Compound 948320] | 5.30 to 6.00 | 6.00 to 7.00
CC[C@@]1(c2cccc(-c3ccnn3C)c2)C2=CN=NC2NC2=C1C(=O)NC1(CCC1)C2 (some centres not stated) [US20250313563, Compound 948358] | > 7.00 and 5.30 to 6.00 | > 7.00 and 6.00 to 7.00
CC[C@@]1(c2cccc(-c3ccncc3C)c2)C2=CN=NC2NC2=C1C(=O)NC1(CCOCC1)C2 (some centres not stated) [US20250313563, Compound 948359] | > 7.00 and 5.30 to 6.00 | > 7.00 and 6.00 to 7.00
CCc1cc(-c2cccc([C@@]3(CC)C4=CN=NC4NC4=C3C(=O)NC(C)(C)C4)c2)ccn1 (some centres not stated) [US20250313563, Compound 948360] | < 5.30 | 5.30 to 6.00
CC[C@@]1(c2cccc(-c3ccnc(C)c3Cl)c2)C2=CN=NC2NC2=C1C(=O)NC(C)(C)C2 (some centres not stated) [US20250313563, Compound 948361] | > 7.00 and 5.30 to 6.00 | > 7.00 and 6.00 to 7.00
CC[C@]1(c2cccc(C3=C4CC=C(Cl)C=C4N=CC3)c2)C2=CN=NC2NC2=C1C(=O)NC(C)(C)C2 (some centres not stated) [US20250313563, Compound 948362] | < 5.30 | < 5.30
CC[C@]1(c2cccc(-c3c(F)cncc3Cl)c2)C2=CN=NC2NC2=C1C(=O)NC(C)(C)C2 (some centres not stated) [US20250313563, Compound 948363] | < 5.30 | 5.30 to 6.00
CC[C@]1(c2cccc(-c3ccnn3C)c2)C2=CN=NC2NC2=C1C(=O)N[C@]1(CCCOC1)C2 (some centres not stated) [US20250313563, Compound 948365] | < 5.30 | 5.30 to 6.00
CC[C@@]1(c2cccc(C3=C4CC=C(Cl)C=C4N=CC3)c2)C2=CN=NC2NC2=C1C(=O)NC(C)(C)C2 (some centres not stated) [US20250313563, Compound 948368] | 6.00 to 7.00 | > 7.00
CC[C@]1(c2cccc(-c3ccnc(C)c3Cl)c2)C2=CN=NC2NC2=C1C(=O)NC(C)(C)C2 (some centres not stated) [US20250313563, Compound 948369] | < 5.30 | < 5.30
CCc1cc(-c2cccc([C@]3(CC)C4=CN=NC4NC4=C3C(=O)NC(C)(C)C4)c2)ccn1 (some centres not stated) [US20250313563, Compound 948370] | 6.00 to 7.00 | > 7.00
CC[C@@]1(c2cccc(-c3c(F)cncc3Cl)c2)C2=CN=NC2NC2=C1C(=O)NC(C)(C)C2 (some centres not stated) [US20250313563, Compound 948371] | > 7.00 and 6.00 to 7.00 | > 7.00 and 6.00 to 7.00
CC[C@]1(c2cccc(C(F)(F)F)c2)C2=CN=NC2NC2=C1C(=O)N(c1cncnc1)CC2 (some centres not stated) [US20250313563, Compound 948379] | 6.00 to 7.00 | 6.00 to 7.00
Cc1cc([C@H]2CC[C@]3(CC2)C2=C(N=NC2)NC2=C3C(=O)CC(C)(C)C2)ccn1 [US20250313563, Compound 948415] | > 7.00 | > 7.00
Cc1cc([C@H]2CC[C@@]3(CC2)C2=C(N=NC2)NC2=C3C(=O)CC(C)(C)C2)ccn1 [US20250313563, Compound 948416] | 6.00 to 7.00 | > 7.00
CC[C@]1(c2cccc(-c3c(C)nn(C)c3C)c2)C2=C(CC(C)(C)NC2=O)NC2N=NC(C(F)(F)F)=C21 (some centres not stated) [US20250313563, Compound 948417] | 5.30 to 6.00 | 6.00 to 7.00
CC[C@]1(c2cccc(S(C)(=O)=O)c2)C2=C(CC(C)(C)NC2=O)NC2N=NC(C(F)(F)F)=C21 (some centres not stated) [US20250313563, Compound 948418] | > 7.00 | > 7.00
